Measured values as given in patent US8501755B2, “Tetrahydropyridothienopyrimidine compounds and methods of use thereof” (Bayer Intellectual Property GmbH, priority 2006, dated 2013).

Columns and labels:
Type in all cases: cell-based
A431 cells = test: In vitro tumor cell proliferation assay (Cell Titer-Glo) in A431 cells; conditions: Homo sapiens, A-431, 72 h, A431 human epidermoid carcinoma overexpressing HER1; 72 hours exposure; read-out: IC50, activities in A431 cell lines
Text: (§1) The tumor cell proliferation assay used to test the compounds of the present invention involves a readout called Cell Titer-Glow® Luminescent Cell Viability Assay developed by Promega® (Cunningham, BA “A Growing Issue: Cell Proliferation Assays, Modern kits ease quantification of cell growth” The Scientist 2001, 15(13), 26, and Crouch, S P et al., “The use of ATP bioluminescence as a measure of cell proliferation and cytotoxicity” Journal of Immunological Methods 1993, 160, 81-88), that measures inhibition of cell proliferation. Generation of a luminescent signal corresponds to the amount of ATP present, which is directly proportional to the number of metabolically active (proliferating) cells. A431 cells [human epidermoid carcinoma, ATCC # HTB-20, overexpressing HER1 (EGFR, ErbB1)] and N87 [human gastric carcinoma, ATCC # CRL-1555, overexpressing HER2 (ErbB2) and HER1 (EGFR, ErbB1)] were plated at a density of 2.5×10^3 cells/well in 96 well black-clear bottom tissue culture plates in RPMI media with 10% Fetal Bovine Serum and incubated at 37° C. Twenty-four hours later, test compounds are added at a final concentration range from as high 100 μm to as low […] depend on the activities of the tested compounds in serial dilutions at a final DMSO concentration of 0.1%. Cells were incubated for 72 hours at 37° C. in complete growth media after addition of the test compound. After 72 hours of drug exposure, the plates were equilibrated to room temperature for approximately 30 min. Then, using a Promega Cell Titer Glo Luminescent® assay kit, lysis buffer containing 100 microliters of the enzyme luciferase and its substrate, luciferin mixture, was added to each well. The plates were mixed for 2 min on orbital shaker to ensure cell lysis and incubated for 10 min at room temperature to stabilize luminescence signal. The samples were read on VICTOR2 using Luminescence protocol, and analyzed with Analyze5 software to generate IC50 values.

N87 = test: In vitro tumor cell proliferation assay (Cell Titer-Glo) in N87 cells; conditions: N87 human gastric carcinoma overexpressing HER2 and HER1; 72 hours exposure; read-out: IC50, activities in N87 cell lines
Text: as §1

H1975 cells = test: In vitro tumor cell proliferation assay (Cell Titer-Glo) in H1975 cells; conditions: NCI-H1975; H1975 human NSCLC expressing mutant HER1 (L858R,T790M); 72 hours exposure; read-out: IC50, activities in H 1975 cell lines
Text: The tumor cell proliferation assay used to test the compounds of the present invention involves a readout called Cell Titer-Glow® Luminescent Cell Viability Assay developed by Promega® (Cunningham, BA “A Growing Issue: Cell Proliferation Assays, Modern kits ease quantification of cell growth” The Scientist 2001, 15(13), 26, and Crouch, S P et al., “The use of ATP bioluminescence as a measure of cell proliferation and cytotoxicity” Journal of Immunological Methods 1993, 160, 81-88), that measures inhibition of cell proliferation. Generation of a luminescent signal corresponds to the amount of ATP present, which is directly proportional to the number of metabolically active (proliferating) cells.
H1975 cells [human non small cell lung carcinoma, ATCC # CRL-5908, expressing mutant HER1 [(EGFR, ErbB1)(L858R,T790M] were plated at a density of 3×10^3 cells/well in 96 well black-clear bottom tissue culture plates in RPMI media with 10% Fetal Bovine Serum and incubated at 37° C. Twenty-four hours later, test compounds are added at a final concentration range from as high 10 uM to as low 64 pM depending on the activities of the tested compounds in serial dilutions at a final DMSO concentration of 0.1%. Cells were incubated for 72 hours at 37° C. in complete growth media after addition of the test compound. After 72 hours of drug exposure, the plates were equilibrated to room temperature for approximately 30 min. Then, using a Promega Cell Titer Glo Luminescent® assay kit, lysis buffer containing 100 microliters of the enzyme luciferase and its substrate, luciferin mixture, was added to each well. The plates were mixed for 2 min on orbital shaker to ensure cell lysis and incubated for 10 min at room temperature to stabilize luminescence signal. The samples were read on VICTOR2 using Luminescence protocol, and analyzed with Analyze5 software to generate IC50 values.

| Compound | IC50 (A431 cells) [nM] | IC50 (N87) [nM] | IC50 (H1975 cells) [nM] |
| --- | --- | --- | --- |
| O=C(/C=C/CN1CCOCC1)N1CCc2c(sc3ncnc(Nc4ccc(OCc5ccccn5)c(Cl)c4)c23)C1 [Example 1, 1-{4-[3-Chloro-4-(pyridin-2-ylmethoxy)-phenylamino]-5,8-dihydro-6H-9-thia-1,3,7 triaza-fluoren-7-yl}-4-morpholin-4-yl-but-2-en-1-one] | < 200 | < 200 | 200 to 1000 |
| CN(C)C/C=C/C(=O)N1CCc2c(sc3ncnc(Nc4ccc(OCc5ccccn5)c(Cl)c4)c23)C1 [Example 3, N-[3-chloro-4-(pyridin-2-ylmethoxy)phenyl]-7-[(2E)-4-(dimethylamino)but-2-enoyl]-5,6,7,8-tetrahydropyrido[4′,3′:4,5]thieno[2,3-d]pyrimidin-4-amine] | < 200 | < 200 | 200 to 1000 |
| O=C(/C=C/CN1CCCCC1)N1CCc2c(sc3ncnc(Nc4ccc(OCc5ccccn5)c(Cl)c4)c23)C1 [Example 4, N-[3-chloro-4-(pyridin-2-ylmethoxy)phenyl]-7-[(2E)-4-piperidin-1-ylbut-2-enoyl]-5,6,7,8-tetrahydropyrido[4′,3′:4,5]thieno[2,3-d]pyrimidin-4-amine] | < 200 | < 200 | 200 to 1000 |
| CN1CCN(C/C=C/C(=O)N2CCc3c(sc4ncnc(Nc5ccc(OCc6ccccn6)c(Cl)c5)c34)C2)CC1 [Example 5, N-[3-chloro-4-(pyridin-2-ylmethoxy)phenyl]-7-[(2E)-4-(4-methylpiperazin-1-yl)but-2-enoyl]-5,6,7,8-tetrahydropyrido[4′,3′:4,5]thieno[2,3-d]pyrimidin-4-amine] | < 200 | < 200 | 1000 to 10000 |
| O=C(/C=C/CN1CCOCC1)N1CCc2c(sc3ncnc(Nc4ccc(OCc5cccc(F)c5)c(Cl)c4)c23)C1 [Example 10, N-{3-chloro-4-[(3-fluorobenzyl)oxy]phenyl}-7-[(2E)-4-morpholin-4-ylbut-2-enoyl]-5,6,7,8-tetrahydropyrido[4′,3′:4,5]thieno[2,3-d]pyrimidin-4-amine] | < 200 | < 200 | 1000 to 10000 |
| C#Cc1cccc(Nc2ncnc3sc4c(c23)CCN(C(=O)/C=C/CN2CCN(C)CC2)C4)c1 [Example 18, N-(3-ethynylphenyl)-7-[(2E)-4-(4-methylpiperazin-1-yl)but-2-enoyl]-5,6,7,8-tetrahydropyrido [4′,3′:4,5]thieno[2,3-d]pyrimidin-4-amine] | < 200 | < 200 |  |
| O=C(/C=C/CN1CCOCC1)N1CCc2c(sc3ncnc(Nc4ccc5c(ccn5Cc5ccccn5)c4)c23)C1 [Example 120, 7-[(2E)-4-morpholin-4-ylbut-2-enoyl]-N-[1-(pyridin-2-ylmethyl)-1H-indol-5-yl]-5,6,7,8-tetrahydropyrido [4′,3′:4,5]thieno[2,3-d]pyrimidin-4-amine] | 200 to 1000 | < 200 |  |
| CN(C/C=C/C(=O)N1CCc2c(sc3ncnc(Nc4ccc5c(ccn5Cc5ccccc5)c4)c23)C1)C(C)(C)C [Example 131, N-(1-benzyl-1H-indol-5-yl)-7-{(2E)-4-[tert-butyl(methyl)amino]but-2-enoyl}-5,6,7,8-tetrahydropyrido [4′,3′:4,5]thieno[2,3-d]pyrimidin-4-amine] |  | < 200 |  |
| O=C(C#CCN1CCOCC1)N1CCc2c(sc3ncnc(Nc4ccc(F)c(Cl)c4)c23)C1 [Example 137, N-(3-chloro-4-fluorophenyl)-7-(4-morpholin-4-ylbut-2-ynoyl)-5,6,7,8-tetrahydropyrido [4′,3′:4,5]thieno[2,3-d]pyrimidin-4-amine] | 1000 to 10000 | < 200 |  |
| C#Cc1cccc(Nc2ncnc3sc4c(c23)CCN(C(=O)C#CCN2CCOCC2)C4)c1 [Example 138, N-(3-ethynylphenyl)-7-(4-morpholin-4-ylbut-2-ynoyl)-5,6,7,8-tetrahydropyrido [4′,3′:4,5]thieno[2,3-d]pyrimidin-4-amine] | 200 to 1000 | < 200 |  |
| CC1CCCCN1C/C=C/C(=O)N1CCc2c(sc3ncnc(Nc4ccc(Cl)c(Cl)c4)c23)C1 (stereo not shown) [Example 210, N-(3,4-dichlorophenyl)-7-[(2E)-4-(2-methylpiperidin-1-yl)but-2-enoyl]-5,6,7,8-tetrahydropyrido [4′,3′:4,5]thieno[2,3-d]pyrimidin-4-amine] |  | < 200 |  |

Continued, values first:

| IC50 (A431 cells) [nM] | IC50 (N87) [nM] | IC50 (H1975 cells) [nM] | Compound |
| --- | --- | --- | --- |
| < 200 | < 200 | 1000 to 10000 | CCN(CC)C/C=C/C(=O)N1CCc2c(sc3ncnc(Nc4ccc(OCc5ccccn5)c(Cl)c4)c23)C1 [Example 2, N-[3-chloro-4-(pyridin-2-ylmethoxy)phenyl]-7-[(2E)-4-(diethylamino)but-2-enoyl]-5,6,7,8-tetrahydropyrido[4′,3′:4,5]thieno[2,3-d]pyrimidin-4-amine] |
| < 200 | < 200 | 1000 to 10000 | O=C(/C=C/CN1CCOCC1)N1CCc2c(sc3ncnc(Nc4ccc(F)c(Cl)c4)c23)C1 [Example 6, N-(3-chloro-4-fluorophenyl)-7-[(2E)-4-morpholin-4-ylbut-2-enoyl]-5,6,7,8-tetrahydropyrido[4′,3′:4,5]thieno[2,3-d]pyrimidin-4-amine] |
| < 200 | < 200 | 200 to 1000 | CN(C)C/C=C/C(=O)N1CCc2c(sc3ncnc(Nc4ccc(F)c(Cl)c4)c23)C1 [Example 7, N-(3-chloro-4-fluorophenyl)-7-[(2E)-4-(dimethylamino)but-2-enoyl]-5,6,7,8-tetrahydropyrido[4′,3′:4,5]thieno[2,3-d]pyrimidin-4-amine] |
| 200 to 1000 | < 200 | 1000 to 10000 | CN1CCN(C/C=C/C(=O)N2CCc3c(sc4ncnc(Nc5ccc(F)c(Cl)c5)c34)C2)CC1 [Example 8, N-(3-chloro-4-fluorophenyl)-7-[(2E)-4-(4-methylpiperazin-1-yl)but-2-enoyl]-5,6,7,8-tetrahydropyrido[4′,3′:4,5]thieno[2,3-d]pyrimidin-4-amine] |
| < 200 | < 200 | 1000 to 10000 | CCN(CC)C/C=C/C(=O)N1CCc2c(sc3ncnc(Nc4ccc(F)c(Cl)c4)c23)C1 [Example 9, N-(3-chloro-4-fluorophenyl)-7-[(2E)-4-(diethylamino)but-2-enoyl]-5,6,7,8-tetrahydropyrido[4′,3′:4,5]thieno[2,3-d]pyrimidin-4-amine] |
| 1000 to 10000 |  | 1000 to 10000 | O=C(/C=C/Cn1ccnc1)N1CCc2c(sc3ncnc(Nc4ccc(F)c(Cl)c4)c23)C1 [Example 34, N-(3-chloro-4-fluorophenyl)-7-[(2E)-4-(1H-imidazol-1-yl)but-2-enoyl]-5,6,7,8-tetrahydropyrido [4′,3′:4,5]thieno[2,3-d]pyrimidin-4-amine] |
|  | < 200 | < 200 | CC(C)N(C)C/C=C/C(=O)N1CCc2c(sc3ncnc(Nc4ccc(F)c(Cl)c4)c23)C1 [Example 36, N-(3-chloro-4-fluorophenyl)-7-{(2E)-4-[isopropyl(methyl)amino]but-2-enoyl}-5,6,7,8-tetrahydropyrido[4′,3′:4,5]thieno[2,3-d]pyrimidin-4-amine] |
|  | < 200 | 200 to 1000 | CN(C/C=C/C(=O)N1CCc2c(sc3ncnc(Nc4ccc(F)c(Cl)c4)c23)C1)C(C)(C)C [Example 55, 7-{(2E)-4-[tert-butyl(methyl)amino]but-2-enoyl}-N-(3-chloro-4-fluorophenyl)-5,6,7,8-tetrahydropyrido [4′,3′:4,5]thieno[2,3-d]pyrimidin-4-amine] |
